In patent publication US20100035865A1, “Sulfonamides and Pharmaceutical Compositions Thereof” (PFIZER INC, priority 2007, published 2010):
pEC50: −log10 of the molar value. “And” between values parts separate entries of the source, which are not always exact repeats. Identical values can stand only once. Like-named read-outs stand apart in the source and are kept apart here.

What was measured:
AMPA receptors [1] = assay: AMPA ES Cell FLIPR Screen, G7330A (single dose % effect); format: cell-based, murine; details: Dose 32.0 uM; mean (range and n in cells below); ES cell-derived neurons, 32 uM AMPA challenge; negative control AMPA alone, positive control AMPA plus cyclothiazide
Description: (§1) The murine ES cell line used was E14-Sx1-16C, which has a targeted mutation in the Sox1 gene, a neuroectodermal marker, that offers G418 resistance when the Sox1 gene is expressed (Stem Cell Sciences). ES cells were maintained undifferentiated as previously described (Roach). […] ES cells were plated on gelatin-coated dishes (BD Biosciences), the media was changed daily and the cells were dissociated with 0.05% Trypsin EDTA (Invitrogen) every other day.
(§2) Embryoid Body Formation: Prior to embryoid body (EB) formation the ES cells were weaned from FBS onto Knockout Serum Replacement (KSR) (Invitrogen). To form EBs, ES cells were dissociated into a single cell suspension then 3×10^6 cells were plated in bacteriology dishes (Nunc 4014) and grown as a suspension culture in NeuroEB-I medium that consisted of Knockout™ D-MEM (Invitrogen), supplemented with 10% KSR (Invitrogen), 0.2 mM L-Glutamine (Invitrogen), 0.1 mM MEM non-essential amino acids (Invitrogen), 30 μg/ml Gentamicin (Invitrogen), 1000 u/ml ESGRO (Chemicon), 0.1 mM 2-Mercaptoethanl (Sigma) and 150 ng/ml Transferrin (Invitrogen). The plates were put on a Stovall Belly Button shaker in an atmospheric oxygen incubator. The media was changed on day 2 of EB formation with NeuroEB-I and on day 4 with NeuroEB-II (NeuroEB-I plus 1 μg/ml mNoggin [R&D Systems]).
(§3) Neuronal Precursor Selection and Expansion: On day 5 of EB formation, EBs were dissociated with 0.05% Trypsin EDTA, and 4×10^6 cells/100 mm dish were plated on Laminin coated tissue culture dishes in NeuroII-G418 medium that consisted of a base medium of a 1:1 mixture of D-MEM/F12 supplemented with N2 supplements and NeuroBasal Medium supplemented with B27 supplement and 0.1 mM L-Glutamine (all from Invitrogen). The base medium was then supplemented with 10 ng/ml bFGF (Invitrogen), 1 μg/ml mNoggin, 500 ng/ml SHH-N, 100 ng/ml FGF-8b (R&D Systems), 1 μg/ml Laminin and 200 μg/ml G418 (Invitrogen) for selection of neuronal precursors expressing Sox-1. The plates were put in an incubator that contained 2% Oxygen and were maintained in these conditions. During the 6-day selection period, the NeuroII media was changed daily. On day 6, the surviving neuronal precursor foci were dissociated with 0.05% Trypsin EDTA and the cells were plated at a density of 1.5×10^6 cells/100 mm Laminin coated dish in NeuroII-G418 medium. The cells were dissociated every other day for expansion, and prepared for Cryopreservation at passage 3 or 4. The cryopreservation medium contained 50% KSR, 10% Dimethyl Sulfoxide (DMSO) (Sigma) and 40% NeuroI-G418I medium. Neuronas precursors were crypreserved at a concentration of 4×10^6cells/ml and 1 ml/cryovial in a controlled rate freezer overnight then transferred to an ultra-low freezer or liquid nitrogen for long-term storage,
(§4) Neuronal Differentiation: Cryopreserved ES cell-derived neuronal precursors were thawed by the rapid thaw method in a 37-degree water-bath. The cells were transferred from the cryovial to a 100 mm Laminin coated tissue culture dish that already contained NeuroII-G418 that had been equilibrated in a 2% Oxygen incubator. The media was changed with fresh NeuroII-G418 the next day. The cells were dissociated every other day as described above for expansion to generate enough cells to plate for the screen. For the screen, the cells were plated into 384-well poly-d-lysine coated tissue culture dishes (BD Biosciences) by the automated SelecT at a cell density of 6K cells/well in differentiation medium NeuroIII that contained a 4:1 ratio of the NeuroBasalMedium/B27:D-MEM/F12/N2 supplemented with 1 μM cAMP (Sigma), 200 μM Ascorbic Acid (Sigma), 1 μg/ml Laminin (Invitrogen) and 10 ng/ml BDNF (R&D Systems). The plates were put in an incubator with 2% Oxygen and allowed to complete the differentiation process for 7 days. The cells could then be used over a 5-day period for the high throughput screen.
(§5) Procedure for AMPA ES Cell FLIPR Screen […]

AMPA receptors [2] = assay: AMPA ES Cell FLIPR Screen, G7330B (EC50 and % effect); format: cell-based, murine; details: for G7330B (U): % Effect: Dose 32.0 uM; for pEC50: ES cell-derived neurons, 32 uM AMPA challenge
Description: as §1, §2, §3, §4, §5

| SMILES | G7330A: % Effect (AMPA receptors [1]) | G7330B (U): % Effect (AMPA receptors [2]; individual determinations) | pEC50 (AMPA receptors [2]; individual determinations, read-out: G7330B (U): EC50) | pEC50 (AMPA receptors [2]; mean of individual determinations (range and n in cells below), read-out: G7330B mean EC50) |
| --- | --- | --- | --- | --- |
| CCS(=O)(=O)N[C@@H]1CNCC[C@@H]1c1ccc(-c2ccccc2)cc1 (relative stereo) [Example 11, Ethanesulfonic acid (cis-4-biphenyl-4-yl-piperidin-3-yl)-amide] | 2.34% | 1.55% and 3.14% and 2.25% and 2.45% |  |  |
| CC(C)S(=O)(=O)N[C@@H]1CNCC[C@H]1c1ccc(-c2ccccc2)cc1 (relative stereo) [Example 1, propane-2-sulfonic acid (trans-4-biphenyl-4-yl-piperidin-3-yl)-amide] | 87.1% | 86.8% and 115% and 132% and 92.5% and 85.0% | 4.77 and 4.95 and 4.90 | 4.88 |
